Patent US20070087400A1, “Covalent tethering of functional groups to proteins and substrates therefor” (priority 2004, published 2007)
Where two headings read alike, the source gives them in different places.

What was measured:
DhaA.WT = DhaA.WT (Rhodococcus rhodochrous, UniProt P0A3G2); test: Hydrolysis of Cl-alkanes, pH-indicator dye (phenol red) assay; type: biochemical
From the text: To study the effect of a point mutation on the activity of DhaA (WT or mutant) hydrolysis of Cl-alkanes, a pH-indicator dye system as described by Holloway et al. (1998) was employed.

[1] = molecular target: tetracysteine domain in a recombinant protein; conditions: cited from earlier work
CHO-K1 cells [2] = test: Permeability of cell membrane to substrates (uptake and wash-out)
Method: (§2) Fresh media was then added to cells, and the cells were returned to the CO2 incubator at 37° C. The level of fluorescence in cells in 96 well plates was measured on fluorescent plate reader CytoFluor II (Beckman) at Eex/Eem equal 480/520 nm and 540/575 nm for carboxyfluorescein-and carboxytetramethylrhodamine-modified substrates, respectively. Fluorescent images of the cells were taken on inverted epifluorescent microscope Axiovert-100 (Carl Zeiss) with filter sets appropriate for detection of FITC and carboxytetramethylrhodamine.

CHO-K1 cells [3] = system: CHO-K1 cells
Method: as §2

E. coli = test: Permeability of plasma membrane of prokaryotic cells to substrates
DhaA.H272F = DhaA.H272F (Rhodococcus rhodochrous, UniProt P0A3G2, H272F); test: In vitro binding of Cl-alkanes with functional groups, SDS-PAGE with fluoroimager or HRP-streptavidin; conditions: dose dependent, 0.04-125 μM tested
From the text: (§1) Then the proteins were resolved on SDS-PAGE.

streptavidin = streptavidin (Streptomyces avidinii, UniProt P22629); conditions: surface plasmon resonance; cited from earlier work
[4] = system: DhaA.H272 mutants, i.e. H272F/G/A/Q; test: In vitro binding and pretreatment blocking, SDS-PAGE; parameters: species or system Rhodococcus rhodochrous
From the text: FIG. 10 illustrates that pretreatment of a mutant DhaA with a substrate, biotin-C10H21NO2—Cl, blocks binding of another substrate. DhaA.WT-lanes 1 and 2; DhaA.H272 mutants: F, lanes 3 and 4; G, lanes 5 and 6; A, lanes 7 and 8; and Q, lanes 9 and 10. Samples 2, 4, 6, 8, and 10 were pretreated with biotin-C10H21NO2—Cl.
as §1

[5] = Tethering of R.Luc-DhaA fusions to streptavidin-coated plates via biotin Cl-alkane; conditions: pretreatment of R.Luc-connector-DhaA.H272F
Method: Translated proteins were contacted with biotin-C10H21N1O2—Cl substrate at 25 μM (final concentration), for 60 minutes at room temperature. Unbound biotin-C10H21N1O2—Cl was removed by gel-filtration on Sephadex G-25 prepackaged columns (Amersham Biosciences). Collected fractions of R.Luc-connector-DhaA fusions were placed in SA-coated 96-well plate for 1 hour at room temperature, unbound proteins were washed out and luciferase activity was measured.

CHO-K1 cells [6] = test: Toxicity of Cl-alkanes, CellTiter-Glo Luminescence Cell Viability Assay; type: cell-based
Method: To study the toxicity of Cl-alkanes, CHO-K1 cells were plated in 96 well plates to a density of 5,000 cells per well. […] Viability of the cells was measured with CellTiter-Glo™ Luminescence Cell Viability Assay (Promega) according to the manufacturer's protocol. Generally, 100 μl of CellTiter-Glo™ reagent was added directly to the cells and the luminescence was recorded at 10 minutes using a DYNEX MLX microtiter plate luminometer.

Compound: OCCCCCCCCCCCl [1-Cl-alkane-10-decanol]
- initial rate of hydrolysis (IRH) (DhaA.WT; first 60 seconds after enzyme addition): much higher than the IRH of 1-Cl-decane

Compound: CCCCCl [1-Cl-butane]
- activity of the wild-type enzyme with the substrate (DhaA.WT; 0.1 mg/ml of enzyme and 10 mM substrate at pH 7.0-8.2): 5 units/mg of protein

Compound: O=C1OC2(c3ccccc31)c1ccc(O)c([As]3SCCS3)c1Oc1c2ccc(O)c1[As]1SCCS1 [FLASH, 4′,5′-bis(1,3,2-dithioarsolan-2-yl)fluorescein]
- dissociation constant [1]: nanomolar or lower

Compound: O=C(NCCOCCOCCCCCCCl)c1ccc(-c2c3ccc(=O)cc-3oc3cc(O)ccc23)c(C(=O)O)c1 [N-{2-[2-(6-Chlorohexyloxy)-ethoxyl-ethyl}-fluorescein-5-amide]
- permeability of plasma membrane of CHO-K1 cells (CHO-K1 cells [2]): did not cross the plasma membrane

Compound: O=C(CCCC[C@@H]1SC[C@@H]2NC(=O)N[C@@H]21)NCCOCCOCCCCCCCl [biotin-C10H21NO2—Cl]
- permeability of plasma membrane of CHO-K1 cells (CHO-K1 cells [3]): permeable
- permeability of plasma membrane of E. coli (E. coli): permeable
- concentration at which binding to DhaA.H272F could be detected (DhaA.H272F): 0.2 µM

Compound: O=C(O)CCCC[C@@H]1SC[C@@H]2NC(=O)N[C@@H]21 [biotin]
- on-rate (streptavidin): 5e+06 M⁻¹ s⁻¹

Compound: N-{2-[2-(6-Chlorohexyloxy)-ethoxy]-ethyl}-tetramethylrhodamine-5-(and -6)-amide
- permeability of plasma membrane of CHO-K1 cells (CHO-K1 cells [2]): permeable
- binding to DhaA.H272F/G/A/Q [4]: bound
- permeability of plasma membrane of E. coli (E. coli): permeable
- decrease of efficiency of capturing by pretreatment with non-biotinylated substrate [5]: about 80%
- toxicity after a 4 hour treatment (CHO-K1 cells [6]; 100 μM (the highest concentration tested)): no toxicity
- maximum non-toxic concentration (CHO-K1 cells [6]; 24 hour treatment): 6.25 µM
- IC50 (CHO-K1 cells [6]; 24 hour treatment, read-out: IC50 of reduction of relative luminescence): ~100 µM
